According to paper PMC6981816, “Characterization of Effectiveness in Concerted Ih Inhibition and IK(Ca) Stimulation by Pterostilbene (Trans-3,5-dimethoxy-4′-hydroxystilbene), a Stilbenoid” (International Journal of Molecular Sciences, 2020):
pEC50: −log10 of the molar value.

Molecular target: T1, large-conductance Ca2+-activated K+ (BKCa) channel (IK(Ca)) (Rattus norvegicus, UniProt Q62976)
T1 construct: gene Kcnma1; native channel in GH3 pituitary cells
Experiment: whole-cell patch clamp of IK(Ca), concentration-response; reversed by verruculogen
Format: cell-based

T1 sequence (Q62976 whole entry): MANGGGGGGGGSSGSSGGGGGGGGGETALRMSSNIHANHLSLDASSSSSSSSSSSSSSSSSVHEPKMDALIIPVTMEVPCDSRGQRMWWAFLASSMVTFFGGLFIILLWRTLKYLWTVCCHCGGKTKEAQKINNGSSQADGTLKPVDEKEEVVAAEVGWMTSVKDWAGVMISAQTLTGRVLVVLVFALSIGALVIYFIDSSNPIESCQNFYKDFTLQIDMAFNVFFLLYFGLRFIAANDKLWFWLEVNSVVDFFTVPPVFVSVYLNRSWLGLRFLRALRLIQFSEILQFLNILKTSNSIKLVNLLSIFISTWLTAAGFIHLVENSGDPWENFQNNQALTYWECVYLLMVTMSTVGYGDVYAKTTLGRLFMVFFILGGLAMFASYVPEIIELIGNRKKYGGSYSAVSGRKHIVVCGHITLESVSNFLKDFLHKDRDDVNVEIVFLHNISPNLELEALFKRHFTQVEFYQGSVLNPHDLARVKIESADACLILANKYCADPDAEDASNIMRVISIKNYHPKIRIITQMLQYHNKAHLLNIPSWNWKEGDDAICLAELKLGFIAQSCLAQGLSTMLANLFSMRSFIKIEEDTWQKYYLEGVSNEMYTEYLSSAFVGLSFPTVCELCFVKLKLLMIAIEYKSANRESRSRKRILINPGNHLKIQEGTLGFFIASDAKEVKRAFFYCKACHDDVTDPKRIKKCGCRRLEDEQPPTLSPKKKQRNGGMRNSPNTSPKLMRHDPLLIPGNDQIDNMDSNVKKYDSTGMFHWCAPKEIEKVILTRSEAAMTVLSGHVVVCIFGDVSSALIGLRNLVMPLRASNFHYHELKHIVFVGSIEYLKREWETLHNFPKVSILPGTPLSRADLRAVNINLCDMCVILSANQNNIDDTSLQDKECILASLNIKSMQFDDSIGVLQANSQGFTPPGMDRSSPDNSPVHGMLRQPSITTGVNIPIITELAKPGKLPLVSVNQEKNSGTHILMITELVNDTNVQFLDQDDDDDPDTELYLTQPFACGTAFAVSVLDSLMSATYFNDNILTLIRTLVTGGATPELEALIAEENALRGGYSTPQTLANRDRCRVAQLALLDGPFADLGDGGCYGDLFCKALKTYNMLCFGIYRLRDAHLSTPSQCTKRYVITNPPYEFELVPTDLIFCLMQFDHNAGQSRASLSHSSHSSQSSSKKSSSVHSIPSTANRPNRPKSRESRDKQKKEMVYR

COc1cc(/C=C/c2ccc(O)cc2)cc(OC)c1 [PTER, trans-3,5-dimethoxy-4′-hydroxystilbene]
pEC50: 5.65
